Laboratory results taken from patent US20260224588A1, “BENZODIAZEPINONE-DERIVED INHIBITORS OF EGFR AND HER2” (The Research Foundation for the State University of New York, priority 2023, published 2026).

What was measured:
CAMK1B = CAMK1B (Homo sapiens, UniProt Q6P2M8); experiment: KINOMEscan; assay type: binding; details: 1 μM of compound 4; read-out: POC
PDGFRA = target: T1, PDGFRA (Homo sapiens, UniProt P16234); experiment: KINOMEscan; assay type: binding; details: 1 μM of compound 4; read-out: POC
T1 construct: purchased Eurofins DiscoverX Corporation (KINOMEscan)
T1 sequence (P16234 24-1089): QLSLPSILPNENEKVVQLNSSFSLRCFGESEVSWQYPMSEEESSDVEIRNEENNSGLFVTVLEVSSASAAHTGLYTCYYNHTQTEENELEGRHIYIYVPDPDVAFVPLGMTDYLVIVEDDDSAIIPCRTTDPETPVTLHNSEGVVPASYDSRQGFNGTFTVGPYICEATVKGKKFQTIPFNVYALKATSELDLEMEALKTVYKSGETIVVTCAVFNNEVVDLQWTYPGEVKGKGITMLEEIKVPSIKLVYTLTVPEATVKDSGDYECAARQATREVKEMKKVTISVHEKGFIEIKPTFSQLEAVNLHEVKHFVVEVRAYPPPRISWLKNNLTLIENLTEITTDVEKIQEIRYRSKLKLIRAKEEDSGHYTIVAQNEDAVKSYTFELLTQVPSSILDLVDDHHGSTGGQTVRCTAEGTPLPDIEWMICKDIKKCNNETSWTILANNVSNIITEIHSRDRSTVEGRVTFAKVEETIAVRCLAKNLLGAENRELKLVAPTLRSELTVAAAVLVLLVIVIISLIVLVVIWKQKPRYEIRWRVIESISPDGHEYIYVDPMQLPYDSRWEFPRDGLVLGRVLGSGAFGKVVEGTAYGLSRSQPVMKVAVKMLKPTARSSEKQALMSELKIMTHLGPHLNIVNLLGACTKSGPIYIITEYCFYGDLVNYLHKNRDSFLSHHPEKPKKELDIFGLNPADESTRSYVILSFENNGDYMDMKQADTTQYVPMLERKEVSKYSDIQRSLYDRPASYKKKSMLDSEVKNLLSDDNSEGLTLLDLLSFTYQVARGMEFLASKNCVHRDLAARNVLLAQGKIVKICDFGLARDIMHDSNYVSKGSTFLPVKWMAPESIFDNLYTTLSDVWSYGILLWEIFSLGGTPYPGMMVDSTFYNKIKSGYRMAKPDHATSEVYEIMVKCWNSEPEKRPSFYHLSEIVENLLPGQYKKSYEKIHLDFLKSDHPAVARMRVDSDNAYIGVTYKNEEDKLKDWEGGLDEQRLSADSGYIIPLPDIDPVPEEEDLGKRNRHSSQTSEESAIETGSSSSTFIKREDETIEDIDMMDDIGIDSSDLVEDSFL

TRKB = target: T2, TRKB (Homo sapiens, UniProt Q16620); experiment: KINOMEscan; assay type: binding; details: 1 μM of compound 4; read-out: POC
T2 construct: purchased Eurofins DiscoverX Corporation

EGFR(L858R) = EGFR(L858R) (Homo sapiens, UniProt P00533, L858R); experiment: Time-dependent kinase inhibition assay (Sox-based substrate); assay type: biochemical; parameters: EGFR [L858R], cytoplasmic domain (669-1210), GST-tagged, Carna; purchased Carna 08-510
Chain of EGFR(L858R) (P00533 669-1210 L858R): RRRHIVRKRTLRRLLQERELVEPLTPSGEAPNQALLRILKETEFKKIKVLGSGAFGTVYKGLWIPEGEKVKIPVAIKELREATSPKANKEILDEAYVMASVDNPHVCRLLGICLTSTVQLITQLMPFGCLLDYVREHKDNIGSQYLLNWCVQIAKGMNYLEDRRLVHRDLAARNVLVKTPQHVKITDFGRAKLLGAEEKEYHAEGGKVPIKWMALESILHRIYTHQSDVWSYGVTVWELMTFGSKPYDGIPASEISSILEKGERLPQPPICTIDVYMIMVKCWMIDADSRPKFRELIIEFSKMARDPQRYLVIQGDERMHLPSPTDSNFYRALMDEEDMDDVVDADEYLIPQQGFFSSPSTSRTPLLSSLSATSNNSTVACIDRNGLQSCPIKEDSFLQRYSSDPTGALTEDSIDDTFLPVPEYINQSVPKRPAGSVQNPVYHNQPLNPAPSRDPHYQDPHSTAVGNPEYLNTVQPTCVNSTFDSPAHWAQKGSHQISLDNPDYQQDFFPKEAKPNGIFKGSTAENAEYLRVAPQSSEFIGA
Protocol: Time-dependent Kinase Inhibition Assays. Biochemical assays were performed with commercially available EGFR WT, cytoplasmic domain (669-1210), GST-tagged, Carna (Cat #/Lot #: 08-115/21CBS-0127H), EGFR [T790M/L858R] and EGFR [L858R], cytoplasmic domain (669-1210), GST-tagged, Carna (Cat #/Lot #: 08-510/12CBS-0765M). […] BSA was not included in this experiment to prevent interference with irreversible inhibitor characterization via off-target binding. All reactions were run for 240 minutes at 30° C. Time-dependent fluorescence from the Sox-based substrate was monitored in PerkinElmer ProxiPlate-384 Plus, white shallow well microplates (Cat. #6008280) Biotek Synergy Neo 2 microplate reader with excitation (360 nm) and emission (485 nm) wavelengths. 2 was dosed between 0 and 10 μM in 24-point curves with 1.5-fold dilutions. Fluorescence, determined with identical reactions but lacking purified enzyme or crude cell lysate was subtracted from the total fluorescence signal for each time point, with both determined in duplicate, to obtain corrected relative fluorescence units (RFU). Corrected RFU values then were plotted vs. time and the reaction velocity for the first ~40 min (initial reaction rates) were determined from the slope using GraphPad Prism (La Jolla, CA) with units of RFU/min.

ACVR2B = ACVR2B (Homo sapiens, UniProt Q13705); experiment: KINOMEscan; assay type: binding; details: 1 μM of compound 4; read-out: POC
CAMKK2 = CAMKK2 (Homo sapiens, UniProt Q96RR4); experiment: KINOMEscan; assay type: binding; details: 1 μM of compound 4; read-out: POC
PIP5K1C = PIP5K1C (Homo sapiens, UniProt O60331); experiment: KINOMEscan; assay type: binding; details: 1 μM of compound 4; read-out: POC
Chain of PIP5K1C (O60331 whole entry): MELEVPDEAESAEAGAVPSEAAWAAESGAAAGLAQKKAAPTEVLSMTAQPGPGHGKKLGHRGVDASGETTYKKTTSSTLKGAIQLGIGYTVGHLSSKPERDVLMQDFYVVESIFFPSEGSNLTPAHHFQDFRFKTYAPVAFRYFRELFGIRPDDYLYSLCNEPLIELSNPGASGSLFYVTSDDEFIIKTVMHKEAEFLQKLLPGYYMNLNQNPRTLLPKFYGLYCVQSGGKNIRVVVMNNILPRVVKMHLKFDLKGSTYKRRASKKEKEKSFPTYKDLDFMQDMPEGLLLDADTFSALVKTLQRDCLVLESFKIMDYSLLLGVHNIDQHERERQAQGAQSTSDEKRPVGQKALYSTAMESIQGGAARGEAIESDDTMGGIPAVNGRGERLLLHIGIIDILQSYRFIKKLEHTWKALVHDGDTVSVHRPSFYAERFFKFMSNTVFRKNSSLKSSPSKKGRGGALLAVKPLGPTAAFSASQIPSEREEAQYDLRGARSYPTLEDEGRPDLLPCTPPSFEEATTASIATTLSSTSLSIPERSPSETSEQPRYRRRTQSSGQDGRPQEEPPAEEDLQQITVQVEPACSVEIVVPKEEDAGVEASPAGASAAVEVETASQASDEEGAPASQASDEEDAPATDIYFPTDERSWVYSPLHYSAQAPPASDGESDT

[1] = target: T3, ABL1(T315I)-phosphorylated (Homo sapiens, UniProt P00519, T315I); experiment: KINOMEscan; assay type: binding; details: 1 μM of compound 4; read-out: POC
T3 construct: purchased Eurofins DiscoverX Corporation

CDC2L2 = CDC2L2 (Homo sapiens, UniProt Q9UQ88); experiment: KINOMEscan; assay type: binding; details: 1 μM of compound 4; read-out: POC
MET = MET (Homo sapiens, UniProt P08581); experiment: KINOMEscan; assay type: binding; details: 1 μM of compound 4; read-out: POC
MAP3K15 = MAP3K15 (Homo sapiens, UniProt Q6ZN16); experiment: KINOMEscan; assay type: binding; details: 1 μM of compound 4; read-out: POC
KIT(L576P) = KIT(L576P) (Homo sapiens, UniProt P10721, L576P); experiment: KINOMEscan; assay type: binding; details: 1 μM of compound 4; read-out: POC
DAPK1 = DAPK1 (Homo sapiens, UniProt P53355); experiment: KINOMEscan; assay type: binding; details: 1 μM of compound 4; read-out: POC
Chain of DAPK1 (P53355 whole entry): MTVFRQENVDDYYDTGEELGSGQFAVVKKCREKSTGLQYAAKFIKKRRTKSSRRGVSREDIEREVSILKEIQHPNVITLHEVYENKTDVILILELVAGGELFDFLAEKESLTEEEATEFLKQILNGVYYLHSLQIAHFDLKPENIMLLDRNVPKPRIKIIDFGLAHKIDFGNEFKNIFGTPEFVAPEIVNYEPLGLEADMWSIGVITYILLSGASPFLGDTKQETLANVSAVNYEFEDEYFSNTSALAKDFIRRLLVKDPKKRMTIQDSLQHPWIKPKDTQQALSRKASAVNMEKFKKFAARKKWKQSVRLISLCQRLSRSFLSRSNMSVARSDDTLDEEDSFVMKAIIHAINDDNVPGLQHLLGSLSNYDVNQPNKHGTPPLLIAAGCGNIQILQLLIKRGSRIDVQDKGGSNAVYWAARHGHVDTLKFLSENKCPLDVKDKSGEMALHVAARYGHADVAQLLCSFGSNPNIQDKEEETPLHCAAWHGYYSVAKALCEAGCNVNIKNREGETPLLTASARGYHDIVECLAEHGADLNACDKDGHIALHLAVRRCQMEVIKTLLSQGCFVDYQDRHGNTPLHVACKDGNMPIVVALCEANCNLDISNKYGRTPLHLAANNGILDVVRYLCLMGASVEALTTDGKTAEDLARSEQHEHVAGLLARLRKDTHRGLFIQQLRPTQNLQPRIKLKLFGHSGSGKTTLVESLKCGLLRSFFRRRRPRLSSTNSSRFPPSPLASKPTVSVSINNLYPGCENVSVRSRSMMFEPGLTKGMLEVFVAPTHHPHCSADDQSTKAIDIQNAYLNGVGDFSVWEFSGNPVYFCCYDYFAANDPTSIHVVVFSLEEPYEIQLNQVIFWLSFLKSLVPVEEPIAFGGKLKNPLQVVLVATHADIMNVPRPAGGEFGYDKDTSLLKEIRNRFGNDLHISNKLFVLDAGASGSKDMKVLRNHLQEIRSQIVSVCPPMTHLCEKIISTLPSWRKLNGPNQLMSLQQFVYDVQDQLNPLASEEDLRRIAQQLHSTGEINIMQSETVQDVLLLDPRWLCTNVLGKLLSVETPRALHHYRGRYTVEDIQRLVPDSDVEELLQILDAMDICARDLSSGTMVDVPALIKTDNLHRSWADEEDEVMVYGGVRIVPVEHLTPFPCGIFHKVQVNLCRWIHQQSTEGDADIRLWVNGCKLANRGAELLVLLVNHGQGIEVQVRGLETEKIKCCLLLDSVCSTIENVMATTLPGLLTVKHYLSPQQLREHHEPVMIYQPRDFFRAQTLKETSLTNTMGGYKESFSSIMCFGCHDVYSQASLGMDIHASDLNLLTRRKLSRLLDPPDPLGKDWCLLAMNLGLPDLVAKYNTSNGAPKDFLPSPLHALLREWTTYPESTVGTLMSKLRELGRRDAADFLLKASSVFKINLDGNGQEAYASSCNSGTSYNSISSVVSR

BMX = BMX (Homo sapiens, UniProt P51813); experiment: KINOMEscan; assay type: binding; details: 1 μM of compound 4; read-out: POC
Chain of BMX (P51813 whole entry): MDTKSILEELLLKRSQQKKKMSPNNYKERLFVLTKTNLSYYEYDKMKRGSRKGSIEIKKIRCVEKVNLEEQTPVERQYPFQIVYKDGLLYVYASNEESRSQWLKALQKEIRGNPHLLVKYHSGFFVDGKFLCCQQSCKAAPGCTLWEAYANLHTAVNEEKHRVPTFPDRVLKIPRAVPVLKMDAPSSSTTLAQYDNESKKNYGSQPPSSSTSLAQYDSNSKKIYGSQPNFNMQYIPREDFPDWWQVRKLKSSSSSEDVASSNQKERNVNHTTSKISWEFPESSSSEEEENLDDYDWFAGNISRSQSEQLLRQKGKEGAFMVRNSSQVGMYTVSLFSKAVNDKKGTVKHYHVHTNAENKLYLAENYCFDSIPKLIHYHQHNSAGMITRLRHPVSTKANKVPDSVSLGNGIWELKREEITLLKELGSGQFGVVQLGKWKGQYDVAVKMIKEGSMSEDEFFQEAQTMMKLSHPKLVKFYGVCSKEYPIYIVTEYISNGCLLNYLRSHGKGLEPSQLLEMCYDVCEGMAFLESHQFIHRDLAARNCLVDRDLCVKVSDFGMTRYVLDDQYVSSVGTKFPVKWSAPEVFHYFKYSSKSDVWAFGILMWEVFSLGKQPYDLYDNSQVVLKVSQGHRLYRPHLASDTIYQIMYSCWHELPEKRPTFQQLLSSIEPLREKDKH

EGFR(S752-1759del) = target: T4, EGFR(S752-1759del) (Homo sapiens, UniProt P00533, DEL752-759); experiment: KINOMEscan; assay type: binding; details: 1 μM of compound 4; read-out: POC
T4 construct: purchased Eurofins DiscoverX (KINOMEscan service)

MTOR = MTOR (Homo sapiens, UniProt P42345); experiment: KINOMEscan; assay type: binding; details: 1 μM of compound 4; read-out: POC
AMPK-alpha2 = AMPK-alpha2 (Homo sapiens, UniProt P54646); experiment: KINOMEscan; assay type: binding; details: 1 μM of compound 4; read-out: POC
PCTK2 = target: T5, PCTK2 (Homo sapiens, UniProt Q00537); experiment: KINOMEscan; assay type: binding; details: 1 μM of compound 4; read-out: POC
T5 construct: purchased Eurofins DiscoverX Corporation (KINOMEscan)

AKT2 = AKT2 (Homo sapiens, UniProt P31751); experiment: KINOMEscan; assay type: binding; details: 1 μM of compound 4; read-out: POC
RET(V804L) = target: T6, RET(V804L) (Homo sapiens, UniProt P07949, V804L); experiment: KINOMEscan; assay type: binding; details: 1 μM of compound 4; read-out: POC
T6 construct: purchased Eurofins DiscoverX Corporation (KINOMEscan screening service)

PRKD3 = PRKD3 (Homo sapiens, UniProt O94806); experiment: KINOMEscan; assay type: binding; details: 1 μM of compound 4; read-out: POC
CDKL2 = CDKL2 (Homo sapiens, UniProt Q92772); experiment: KINOMEscan; assay type: binding; details: 1 μM of compound 4; read-out: POC
Chain of CDKL2 (Q92772 whole entry): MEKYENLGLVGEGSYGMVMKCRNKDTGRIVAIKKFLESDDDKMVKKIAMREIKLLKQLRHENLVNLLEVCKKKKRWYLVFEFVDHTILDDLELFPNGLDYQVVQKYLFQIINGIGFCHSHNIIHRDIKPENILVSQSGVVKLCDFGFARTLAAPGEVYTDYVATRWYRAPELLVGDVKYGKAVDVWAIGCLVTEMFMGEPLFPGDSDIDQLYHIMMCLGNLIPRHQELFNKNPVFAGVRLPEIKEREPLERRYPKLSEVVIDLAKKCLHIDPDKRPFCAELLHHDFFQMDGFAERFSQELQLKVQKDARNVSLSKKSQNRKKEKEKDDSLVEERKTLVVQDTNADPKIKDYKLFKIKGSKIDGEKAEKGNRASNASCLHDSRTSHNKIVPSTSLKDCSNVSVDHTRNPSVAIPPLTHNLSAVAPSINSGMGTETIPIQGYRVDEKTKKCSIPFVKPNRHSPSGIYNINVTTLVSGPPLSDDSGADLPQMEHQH

YANK2 = target: T7, YANK2 (Homo sapiens, UniProt Q9NY57); experiment: KINOMEscan; assay type: binding; details: 1 μM of compound 4; read-out: POC
T7 construct: purchased Eurofins DiscoverX

CDK2 = CDK2 (Homo sapiens, UniProt P24941); experiment: KINOMEscan; assay type: binding; details: 1 μM of compound 4; read-out: POC
MEK3 = MEK3 (Homo sapiens, UniProt P46734); experiment: KINOMEscan; assay type: binding; details: 1 μM of compound 4; read-out: POC
MARK1 = MARK1 (Homo sapiens, UniProt Q9P0L2); experiment: KINOMEscan; assay type: binding; details: 1 μM of compound 4; read-out: POC
EPHA7 = target: T8, EPHA7 (Homo sapiens, UniProt Q15375); experiment: KINOMEscan; assay type: binding; details: 1 μM of compound 4; read-out: POC
T8 construct: purchased Eurofins DiscoverX (KINOMEscan service)

MINK = MINK (Homo sapiens, UniProt Q8N4C8); experiment: KINOMEscan; assay type: binding; details: 1 μM of compound 4; read-out: POC
FGFR2 = target: T9, FGFR2 (Homo sapiens, UniProt P21802); experiment: KINOMEscan; assay type: binding; details: 1 μM of compound 4; read-out: POC
T9 construct: purchased Eurofins DiscoverX Corporation

PCTK1 = target: T10, PCTK1 (Homo sapiens, UniProt Q00536); experiment: KINOMEscan; assay type: binding; details: 1 μM of compound 4; read-out: POC
T10 construct: purchased Eurofins DiscoverX Corporation (KINOMEscan)

C=CC(=O)Nc1ccc(OC)c(Nc2cc(-c3[nH]c(CC)nc3-c3cccc(NC(=O)c4cccc5c4NC(=O)c4ccccc4N5)c3)ccn2)c1 [Compound 4, N-(3-(5-(2-((5-Acrylamido-2-methoxyphenyl)amino)pyridin-4-yl)-2-ethyl-1H-imidazol-4-yl)phenyl)-11-oxo-10,11-dihydro-5H-dibenzo[b,e][1,4]diazepine-9-carboxamide]
remaining binding at 1 µM (CAMK1B): 94% | remaining binding at 1 µM (PDGFRA): 69% | remaining binding at 1 µM (TRKB): 100% | kinact (EGFR(L858R)): 0.00867 s⁻¹ | Ki (EGFR(L858R); read-out: KI, LR): 610 ± 30 nM | kinact/KI (EGFR(L858R); read-out: kinact/KI, LR): 14100 ± 300 M⁻¹ s⁻¹ | remaining binding at 1 µM (ACVR2B): 72% | remaining binding at 1 µM (CAMKK2): 95% | remaining binding at 1 µM (PIP5K1C): 78% | remaining binding at 1 µM [1]: 100% | remaining binding at 1 µM (CDC2L2): 91% | remaining binding at 1 µM (MET): 69% | remaining binding at 1 µM (MAP3K15): 74% | remaining binding at 1 µM (KIT(L576P)): 84% | remaining binding at 1 µM (DAPK1): 86% | remaining binding at 1 µM (BMX): 66% | remaining binding at 1 µM (EGFR(S752-1759del)): 6% | remaining binding at 1 µM (MTOR): 100% | remaining binding at 1 µM (AMPK-alpha2): 56% | remaining binding at 1 µM (PCTK2): 100% | remaining binding at 1 µM (AKT2): 91% | remaining binding at 1 µM (RET(V804L)): 99% | remaining binding at 1 µM (PRKD3): 67% | remaining binding at 1 µM (CDKL2): 100% | remaining binding at 1 µM (YANK2): 63% | remaining binding at 1 µM (CDK2): 95% | remaining binding at 1 µM (MEK3): 100% | remaining binding at 1 µM (MARK1): 92% | remaining binding at 1 µM (EPHA7): 100% | remaining binding at 1 µM (MINK): 10% | remaining binding at 1 µM (FGFR2): 100% | remaining binding at 1 µM (PCTK1): 100%
